In patent publication US20250380696A1, “METHOD FOR CONTROLLING UNDESIRED PLANTS AND PROMOTING GROWTH OF USEFUL PLANTS” (ISHIHARA SANGYO KAISHA, LTD., priority 2022, published 2025):

Key:
Format in all cases: in vivo
[1] = test system: Italian ryegrass (Lolium multiflorum); assay: (7) Herbicidal effect test, pot, spray at 2.8 to 3.0 leaf stage; conditions: 7th day after spraying
From the text: (§1) [formula] • X: growth inhibition rate when treated with α (g/ha) of compound A, • Y: growth inhibition rate when treated with β (g/ha) of compound B, • E: growth inhibition rate expected when treated with α (g/ha) of compound A and β (g/ha) of compound B (expected value).
Upland soil was put in a 1/1,000,000 hectare pot, and seeds of Italian ryegrass (Lolium multiflorum) were sown. When Italian ryegrass reached 2.8 to 3.0 leaf stage, a water-based suspension containing tiafenacil as the active ingredient, prepared by a conventional method for preparing a water-based suspension, and an emulsifiable concentrate containing pethoxamid as the active ingredient (tradename: Successor 600, manufactured by Stahler Suisse SA) or an emulsifiable concentrate containing dimethenamid-P as the active ingredient (tradename: Fieldstar P emulsifiable concentrate, manufactured by BASF) were diluted with water (in an amount corresponding to 200 liter per hectare) containing 0.5 vol % of an agricultural spreader (tradename: Destiny HC, manufactured by Winfield Solutions, LLC.) and sprayed by a small spray gun (model: W-101-132G, manufactured by ANEST IWATA Corporation). On the 7th day after spraying, the state of growth of the Italian ryegrass was visually observed, and the growth inhibition rate (%) was obtained in accordance with the evaluation standards described in the above (1) herbicidal effect test, and the results are shown in Table 7. Further, the expected value of the growth inhibition rate (%) was calculated in accordance with the Colby's formula described in the above (1) herbicidal effect test, and the results are also shown in Table 7.

[2] = test system: Italian ryegrass (Lolium multiflorum); assay: (8) Herbicidal effect test, pot, spray at 3.0 to 3.1 leaf stage; conditions: 4th day after spraying
From the text: as §1
(§2) Upland soil was put in a 1/1,000,000 hectare pot, and seeds of Italian ryegrass (Lolium multiflorum) were sown. When Italian ryegrass reached 3.0 to 3.1 leaf stage, a water-based suspension containing tiafenacil as the active ingredient, prepared by a conventional method for preparing a water-based suspension, and an emulsifiable concentrate containing S-metolachlor as the active ingredient (tradename: Dual Gold, manufactured by Syngenta), a wettable powder containing metribuzin as the active ingredient (tradename: SENCOR wettable powder, manufactured by Bayer Crop Science) or water dispersible granules containing pyroxasulfone as the active ingredient (tradename: Sakura, manufactured by Bayer Crop Science) were diluted with water (in an amount corresponding to 200 liter per hectare) containing 0.5 vol % of an agricultural spreader (tradename: Destiny HC, manufactured by Winfield Solutions, LLC.) and sprayed by a small spray gun (model: W-101-132G, manufactured by ANEST IWATA Corporation). On the 4th day after spraying, the state of growth of the Italian ryegrass was visually observed, and the growth inhibition rate (%) was obtained in accordance with the evaluation standards described in the above (1) herbicidal effect test, and the results are shown in Table 8. Further, the expected value of the growth inhibition rate (%) was calculated in accordance with the Colby's formula described in the above (1) herbicidal effect test, and the results are also shown in Table 8.

[3] = test system: Italian ryegrass (Lolium multiflorum); assay: (16) Herbicidal effect test (comparative test), pot, spray at 2.5 to 3.0 leaf stage; conditions: 4th day after spraying
From the text: as §1
as §2, with “reached 2.5 to” for “reached”, “3.0” for “3.0 to 3.1”, “suspension, a water-based suspension containing saflufenacil as the active ingredient (tradename: Sharpen, manufactured by BASF), a wettable powder containing fomesafen as the active ingredient, prepared by a conventional method for preparing a wettable powder, an emulsifiable concentrate containing fluthiacet-methyl as the active ingredient (tradename: Attackshot emulsifiable concentrate, manufactured by MARUWA Biochemical Co., Ltd.), a dry flowable containing carfentrazone-ethyl as the active ingredient (tradename: Task DF, manufactured by ISHIHARA SANGYO KAISHA, LTD.) or a water-based suspension containing pyraflufen-ethyl as the active ingredient (tradename: ECOPART flowable, manufactured by NIHON NOHYAKU CO., LTD.),” for “suspension,”, “Syngenta) or” for “Syngenta),”, “Science),” for “Science) or water dispersible granules containing pyroxasulfone as the active ingredient (tradename: Sakura, manufactured by Bayer Crop Science)”, “16.” for “8.”

[4] = test system: forage corn (cultivar: SNOW DENT OTOHA); assay: (17) Plant growth promotion effect test (corn), Italian ryegrass sown; conditions: 20th day after the sowing, above-ground part
From the text: Upland soil was put in a 1/1,000,000 hectare pot, and seeds of Italian ryegrass (Lolium multiflorum) were sown. When the Italian ryegrass reached 2.5 to 3.0 leaf stage, a water-based suspension containing tiafenacil as the active ingredient, prepared by a conventional method for preparing a water-based suspension, and an emulsifiable concentrate containing S-metolachlor as the active ingredient (tradename: Dual Gold, manufactured by Syngenta) or a wettable powder containing metribuzin as the active ingredient (tradename: SENCOR wettable powder, manufactured by Bayer Crop Science) were diluted with water (in an amount corresponding to 200 liter per hectare) containing 0.5 vol % of an agricultural spreader (tradename: Destiny HC, manufactured by Winfield Solutions, LLC.) and sprayed by a small spray gun (model: W-101-132G, manufactured by ANEST IWATA Corporation). Seeds of forage corn (cultivar: SNOW DENT OTOHA, manufactured by SNOW BRAND SEED Co., Ltd.) were sown in the pot after spraying. On the 20th day after the sowing, the above-ground part of the forage corn was reaped, and its weight was measured to obtain the raw weight.

Q: Which results are given for `CCOCCN(C(=O)CCl)C(=C(C)C)c1ccccc1` [pethoxamid]?
A: Growth inhibition rate (%) Measured value ([1]; Dose 93.75 g/ha): 0%; Growth inhibition rate (%) Measured value ([1]; Dose 187.5 g/ha): 0%; Growth inhibition rate (%) Measured value ([1]; Dose 375 g/ha): 7%; Growth inhibition rate (%) Measured value ([1]; Dose 750 g/ha): 7%; Growth inhibition rate (%) Measured value ([1]; Dose 1500 g/ha): 12%

Q: What does the source list for `CSc1nnc(C(C)(C)C)c(=O)n1N` [metribuzin]?
A: inhibition at 125 g/ha ([2]; Lolium multiflorum, Dose 125 g/ha, read-out: Growth inhibition rate (%) Measured value): 3%; inhibition at 438 g/ha ([2]; Lolium multiflorum, Dose 438 g/ha, read-out: Growth inhibition rate (%) Measured value): 10%; inhibition at 750 g/ha ([2]; Lolium multiflorum, Dose 750 g/ha, read-out: Growth inhibition rate (%) Measured value): 20%; inhibition at 938 g/ha ([2]; Lolium multiflorum, Dose 938 g/ha, read-out: Growth inhibition rate (%) Measured value): 33%; inhibition at 18.75 g/ha ([3]; Lolium multiflorum, Dose 18.75 g/ha, read-out: Growth inhibition rate (%) Measured value): 7%; Raw weight (g) of forage corn ([4]; Dose 18.75 g/ha): 6.2 g

Q: Which “Growth inhibition rate (%) Measured value” ([1]; Dose 6.25 g/ha) does the source give for `COC(=O)CCNC(=O)C(C)Sc1cc(-n2c(=O)cc(C(F)(F)F)n(C)c2=O)c(F)cc1Cl` (centres unmarked) [tiafenacil] here?
A: 15%

Q: What about the “Growth inhibition rate (%) Measured value” ([1]; Dose 12.5 g/ha) of the same compound?
A: 37%

Q: And the “Growth inhibition rate (%) Measured value” ([1]; Dose 25 g/ha)?
A: 33%

Q: And the “Growth inhibition rate (%) Measured value” ([2]; Dose 6.25 g/ha)?
A: 20%

Q: And the “Growth inhibition rate (%) Measured value” ([3]; Dose 12.5 g/ha)?
A: 38%

Q: And the “Raw weight (g) of forage corn” value ([4]; Dose 12.5 g/ha)?
A: 8.5 g

Q: What does the source list for `Cn1nc(C(F)(F)F)c(CS(=O)(=O)C2=NOC(C)(C)C2)c1OC(F)F` [pyroxasulfone]?
A: inhibition at 188 g/ha ([2]; Lolium multiflorum, Dose 188 g/ha, read-out: Growth inhibition rate (%) Measured value): 10%; inhibition at 375 g/ha ([2]; Lolium multiflorum, Dose 375 g/ha, read-out: Growth inhibition rate (%) Measured value): 20%

Q: How did the “Growth inhibition rate (%) Measured value” ([1]; Dose 60 g/ha) turn out when `COC[C@H](C)N(C(=O)CCl)c1c(C)csc1C` [dimethenamid-P] was run?
A: 0%

Q: And the “Growth inhibition rate (%) Measured value” ([1]; Dose 120 g/ha)?
A: 3%

Q: What about the “Growth inhibition rate (%) Measured value” ([1]; Dose 240 g/ha) of the same compound?
A: 8%

Q: And the “Growth inhibition rate (%) Measured value” ([1]; Dose 750 g/ha)?
A: 12%

Q: What about the “Growth inhibition rate (%) Measured value” ([1]; Dose 1500 g/ha) of the same compound?
A: 15%

Q: With `CCc1cccc(C)c1N(C(=O)CCl)[C@@H](C)COC` [S-metolachlor] as the compound, how does the “Growth inhibition rate (%) Measured value” ([2]; Dose 281 g/ha) read?
A: 7%

Q: What about the “Growth inhibition rate (%) Measured value” ([2]; Dose 500 g/ha) of the same compound?
A: 10%

Q: And the “Growth inhibition rate (%) Measured value” ([2]; Dose 625 g/ha)?
A: 13%

Q: What about the “Growth inhibition rate (%) Measured value” ([3]; Dose 750 g/ha) of the same compound?
A: 3%

Q: And the “Raw weight (g) of forage corn” value ([4]; Dose 750 g/ha)?
A: 5.1 g
